How the values were obtained:
[1] = biological target: T1, ERα (récepteur œstrogène alpha) (Homo sapiens, UniProt P03372); assay: Endocrine system: receptor activity in presence of compound and reference molecule (antagonist effect); type: cell-based; details: Figure 7; with reference molecule; even at the highest concentrations
T1 sequence (P03372 1-595): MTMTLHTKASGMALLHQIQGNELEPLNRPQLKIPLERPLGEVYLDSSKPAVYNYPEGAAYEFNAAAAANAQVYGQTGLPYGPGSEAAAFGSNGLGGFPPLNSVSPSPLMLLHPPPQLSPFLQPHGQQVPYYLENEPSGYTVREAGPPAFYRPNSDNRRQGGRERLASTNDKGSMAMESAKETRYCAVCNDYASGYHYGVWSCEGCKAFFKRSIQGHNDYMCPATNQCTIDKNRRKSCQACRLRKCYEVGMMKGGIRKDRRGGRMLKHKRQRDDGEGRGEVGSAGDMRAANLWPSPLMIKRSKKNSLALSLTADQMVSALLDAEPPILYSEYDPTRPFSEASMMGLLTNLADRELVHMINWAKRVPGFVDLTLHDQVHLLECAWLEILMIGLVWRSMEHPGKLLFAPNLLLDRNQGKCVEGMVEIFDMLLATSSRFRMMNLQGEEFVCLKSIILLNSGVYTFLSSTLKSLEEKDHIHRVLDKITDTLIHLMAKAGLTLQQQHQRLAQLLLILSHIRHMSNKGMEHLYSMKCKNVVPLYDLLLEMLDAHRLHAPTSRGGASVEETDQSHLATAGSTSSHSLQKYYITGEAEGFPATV
Excerpt: (§1) L'effet des composés 1 et 4 sur le système endocrinien a été évalué pour leurs propriétés agonistes et antagonistes sur différents récepteurs : ERα (récepteur œstrogène alpha), AR (récepteur des androgènes) et PXR (pregnane X receptor). Un premier test consiste à étudier l'activité des récepteurs en présence du composé 1 ou 4 (effet agoniste). […] Un second test vise à l'étude de l'activité des récepteurs en présence du composé 1 ou 4 et d'une molécule de référence pour chaque récepteur (effet antagoniste).

[2] = biological target: T2, PXR (pregnane X receptor) (Homo sapiens, UniProt O75469); assay: as above; type: cell-based; details: Figure 9; with reference molecule; even at the highest concentrations
T2 sequence (O75469 1-434): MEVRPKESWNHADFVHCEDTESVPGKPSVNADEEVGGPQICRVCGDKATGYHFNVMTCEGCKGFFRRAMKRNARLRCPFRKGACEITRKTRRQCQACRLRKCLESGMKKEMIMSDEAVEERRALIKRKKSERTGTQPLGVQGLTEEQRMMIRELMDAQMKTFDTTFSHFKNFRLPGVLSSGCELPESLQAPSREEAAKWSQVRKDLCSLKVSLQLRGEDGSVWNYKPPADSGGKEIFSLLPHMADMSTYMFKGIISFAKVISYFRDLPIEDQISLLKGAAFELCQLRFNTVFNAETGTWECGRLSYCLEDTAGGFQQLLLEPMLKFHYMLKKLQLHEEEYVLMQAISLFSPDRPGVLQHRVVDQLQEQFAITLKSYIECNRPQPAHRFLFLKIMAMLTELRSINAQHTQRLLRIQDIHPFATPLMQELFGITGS
Excerpt: as §1

[3] = biological target: T3, AR (récepteur des androgènes) (Homo sapiens, UniProt P10275); assay: as above; type: cell-based; details: Figure 8; with reference molecule; even at the highest concentrations
T3 sequence (P10275 1-920): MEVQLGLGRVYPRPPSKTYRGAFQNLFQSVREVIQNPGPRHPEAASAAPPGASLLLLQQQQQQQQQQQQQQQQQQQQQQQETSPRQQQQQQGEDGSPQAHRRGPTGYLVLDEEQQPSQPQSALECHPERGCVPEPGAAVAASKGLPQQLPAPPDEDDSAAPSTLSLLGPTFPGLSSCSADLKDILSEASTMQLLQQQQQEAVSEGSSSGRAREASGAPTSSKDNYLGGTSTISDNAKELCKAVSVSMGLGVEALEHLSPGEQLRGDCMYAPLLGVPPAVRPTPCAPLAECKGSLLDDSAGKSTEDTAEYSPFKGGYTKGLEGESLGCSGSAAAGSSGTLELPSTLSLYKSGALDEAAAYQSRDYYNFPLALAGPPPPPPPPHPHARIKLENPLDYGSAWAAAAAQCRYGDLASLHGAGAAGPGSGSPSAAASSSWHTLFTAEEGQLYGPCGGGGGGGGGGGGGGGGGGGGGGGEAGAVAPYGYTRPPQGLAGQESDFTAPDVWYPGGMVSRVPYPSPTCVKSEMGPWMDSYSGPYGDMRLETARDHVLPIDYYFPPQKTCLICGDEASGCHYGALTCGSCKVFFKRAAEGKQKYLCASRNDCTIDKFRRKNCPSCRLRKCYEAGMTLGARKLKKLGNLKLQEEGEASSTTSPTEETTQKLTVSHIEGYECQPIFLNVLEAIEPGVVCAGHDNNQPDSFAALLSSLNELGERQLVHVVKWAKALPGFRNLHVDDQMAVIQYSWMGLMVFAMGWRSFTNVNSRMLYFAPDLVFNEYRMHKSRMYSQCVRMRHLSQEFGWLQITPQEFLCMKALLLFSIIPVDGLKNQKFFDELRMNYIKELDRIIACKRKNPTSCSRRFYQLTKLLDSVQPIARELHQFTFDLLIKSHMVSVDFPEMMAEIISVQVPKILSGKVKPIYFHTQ
Excerpt: as §1

[4] = Photostability under UV exposure; type: physicochemical; details: Tableau 1; for Perte d'activité (%): UV exposure λ 300 nm, P 8.32 W/m^2, one hour
Excerpt: La stabilité des composés 1 à 7 aux UV a été étudiée par soumission à une exposition (λ : 300 nm, P : 8.32 W/m^2) pendant une heure.
L'Avobenzone a été utilisée comme molécule de référence. Cette molécule est connue pour être […] sous exposition UV, ce qui n'est pas du tout le cas d'autres composés bio-sourcés.
La photostabilité des composés 8 à 11 a également été étudiée, de manière identique au test appliqué aux composés 1 à 7. Les résultats obtenus sont présentés dans le Tableau 2. […] Cette méthodologie a été appliquée à l'ensemble des molécules décrites ci-dessus. Tableau 2 : Stabilité des composés 8 à 11 soumis à une exposition aux UV.

[5] = biological target: T1, ERα (récepteur œstrogène alpha); assay: Endocrine system: receptor activity in presence of compound (agonist effect); type: cell-based; details: Figure 6, C = 10 µM; even at the highest concentrations
Excerpt: as §1

[6] = biological target: T2, PXR (pregnane X receptor); assay: as above; type: cell-based; details: Figure 6, C = 10 µM; even at the highest concentrations
Excerpt: as §1

[7] = biological target: T3, AR (récepteur des androgènes); assay: as above; type: cell-based; details: Figure 6, C = 10 µM; even at the highest concentrations
Excerpt: as §1

[8] = UV-Vis absorption spectrum (anti-UVA and blue light properties); type: physicochemical; design: λmax: unit not given here; details: Tableau 1
Excerpt: Un spectre UV-Vis a été réalisé dans l'éthanol à 10^-5 mol/L pour les composés 1 à 7, qui sont des dérivés furaniques de l'acide de Medrum. L'Avobenzone, une molécule très largement utilisée comme filtre UVA dans les crèmes solaires, a été utilisée en tant que référence.
Cette méthodologie a été employée pour évaluer les propriétés anti-UV des composés 8 à 11, qui sont des dérivés phénoliques de l'acide de Medrum, des composés 12 à 15 qui sont des dérivés pyrroliques de l'acide de Meldrum, des composés 16 à 18 qui sont des dérivés vinylphénol de l'acide de Meldrum, le composé 19 qui est un dérivé vinylfurane de l'acide de Meldrum.

CC1(C)OC(=O)C(=Cc2ccco2)C(=O)O1 [Composé 1, 5-(2-Furanylmethylene)-2,2-dimethyl-1,3-dioxane-4,6-dione]
effet antagoniste sur le récepteur ERα [1]: n'empêchent pas l'activité des récepteurs envers les molécules de référence | effet antagoniste sur le récepteur PXR [2]: n'empêchent pas l'activité des récepteurs envers les molécules de référence | effet antagoniste sur le récepteur AR [3]: n'empêchent pas l'activité des récepteurs envers les molécules de référence | Perte d'activité (%) [4]: < 5% | Perte d'activité (%) ([4]; listed as Composé (1)): 3.5% | A (t=0 min) ([4]; absorbance before UV exposure): 0.3381 | effet agoniste (activité du récepteur ERα) [5]: n'induisent pas une activité anormale des récepteurs | effet agoniste (activité du récepteur PXR) [6]: n'induisent pas une activité anormale des récepteurs | effet agoniste (activité du récepteur AR) [7]: n'induisent pas une activité anormale des récepteurs | λmax [8]: 361
